# Experimental data published in ChEMBL document CHEMBL1201862, “PubChem BioAssay data set” (2004).
#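 Exposure lasted 48 hours, with cells grown in 96-well plates and compounds tested at five concentrations. GI50: concentration for 50% inhibition of growth.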 Active and inactive are the calls of the source. Rule as the data show it: active = GI50 up to about 1.1 µM and inactive = higher.
# Tests used:
# Assay in all cases: NCI-60 cell line screen, 48 h
# HCT-15 = test system: HCT-15
# A498 = test system: A498
# Hs-578T = test system: Hs-578T
# SF-268 = test system: SF-268
# SF-539 = test system: SF-539
# SR = test system: SR
# MCF7 = test system: MCF7
# SF-295 = test system: SF-295
# MOLT-4 = test system: MOLT-4
# MDA-MB-435 = test system: MDA-MB-435
# Malme-3M = test system: Malme-3M
# OVCAR-4 = test system: OVCAR-4
# DU-145 = test system: DU-145
# ACHN = test system: ACHN
# PC-3 = test system: PC-3
# UACC-257 = test system: UACC-257
# RPMI-8226 = test system: RPMI-8226
# SK-MEL-5 = test system: SK-MEL-5
# MDA-MB-231 = test system: MDA-MB-231
# HOP-62 = test system: HOP-62
# HCC 2998 = test system: HCC 2998
# HT-29 = test system: HT-29
# HL-60 = test system: HL-60
# U-251 = test system: U-251
# UACC-62 = test system: UACC-62
# MDA-N = test system: MDA-N
# K562 = test system: K562
# NCI-H226 = test system: NCI-H226
# NCI-H23 = test system: NCI-H23
# SK-MEL-2 = test system: SK-MEL-2
# KM12 = test system: KM12
# COLO 205 = test system: COLO 205
# BT-549 = test system: BT-549
# T47D = test system: T47D
# CAKI-1 = test system: CAKI-1
# UO-31 = test system: UO-31
# SNB-19 = test system: SNB-19
# HCT-116 = test system: HCT-116
# SK-MEL-28 = test system: SK-MEL-28
# M14 = test system: M14
# SN12C = test system: SN12C
# SNB-75 = test system: SNB-75
# OVCAR-5 = test system: OVCAR-5
# CCRF-CEM = test system: CCRF-CEM
# NCI-H460 = test system: NCI-H460
# A549 = test system: A549
# EKVX = test system: EKVX
# SW-620 = test system: SW-620
# 786-0 = test system: 786-0
# SK-OV-3 = test system: SK-OV-3
# TK-10 = test system: TK-10
# OVCAR-3 = test system: OVCAR-3
# NCI/ADR-RES = test system: NCI/ADR-RES
# RXF 393 = test system: RXF 393
# OVCAR-8 = test system: OVCAR-8
# LOX IMVI = test system: LOX IMVI
# HOP-92 = test system: HOP-92
# IGROV-1 = test system: IGROV-1
# NCI-H522 = test system: NCI-H522
compound,measurement,setting,value
N=c1oc2c(Cl)cc(Cl)cc2cc1C(=O)Nc1ccccn1,GI50,HCT-15,34.8 µM
same,GI50,A498,40.1 µM (inactive)
same,GI50,Hs-578T,20.5 µM (inactive)
same,GI50,SF-268,33 µM (inactive)
same,GI50,SF-539,40.9 µM (inactive)
same,GI50,SR,23.1 µM (inactive)
same,GI50,MCF7,29.2 µM (inactive)
same,GI50,SF-295,54.7 µM (inactive)
same,GI50,MOLT-4,8.24 µM (inactive)
same,GI50,MDA-MB-435,45.6 µM (inactive)
same,GI50,Malme-3M,> 100 µM (inactive)
same,GI50,OVCAR-4,58.6 µM (inactive)
same,GI50,DU-145,72.4 µM (inactive)
same,GI50,ACHN,22 µM (inactive)
same,GI50,PC-3,52 µM (inactive)
same,GI50,UACC-257,> 100 µM (inactive)
same,GI50,RPMI-8226,22.3 µM (inactive)
same,GI50,SK-MEL-5,> 100 µM (inactive)
same,GI50,MDA-MB-231,69.2 µM (inactive)
same,GI50,HOP-62,16.4 µM (inactive)
same,GI50,HCC 2998,81.5 µM (inactive)
same,GI50,HT-29,91.2 µM (inactive)
same,GI50,HL-60,> 100 µM (inactive)
same,GI50,U-251,37.2 µM (inactive)
same,GI50,UACC-62,20.6 µM (inactive)
same,GI50,MDA-N,62.1 µM (inactive)
same,GI50,K562,71 µM (inactive)
same,GI50,NCI-H226,> 100 µM (inactive)
same,GI50,NCI-H23,41.4 µM (inactive)
same,GI50,SK-MEL-2,42.7 µM (inactive)
same,GI50,KM12,13.9 µM (inactive)
same,GI50,COLO 205,> 100 µM (inactive)
same,GI50,BT-549,41.4 µM (inactive)
same,GI50,T47D,74.8 µM (inactive)
same,GI50,CAKI-1,> 100 µM (inactive)
same,GI50,UO-31,59 µM (inactive)
same,GI50,SNB-19,34.7 µM (inactive)
same,GI50,HCT-116,41.1 µM (inactive)
same,GI50,SK-MEL-28,> 100 µM (inactive)
same,GI50,M14,33.7 µM (inactive)
same,GI50,SN12C,99.3 µM (inactive)
same,GI50,SNB-75,14.3 µM (inactive)
same,GI50,OVCAR-5,> 100 µM (inactive)
same,GI50,CCRF-CEM,22 µM (inactive)
same,GI50,NCI-H460,48.3 µM (inactive)
same,GI50,A549,44.4 µM (inactive)
same,GI50,EKVX,67.3 µM (inactive)
same,GI50,SW-620,43.6 µM (inactive)
same,GI50,786-0,27.5 µM (inactive)
same,GI50,SK-OV-3,67.5 µM (inactive)
same,GI50,TK-10,34.5 µM (inactive)
same,GI50,OVCAR-3,24.6 µM (inactive)
same,GI50,NCI/ADR-RES,66.4 µM (inactive)
same,GI50,RXF 393,19.8 µM (inactive)
O=C(c1ccc(Cl)cc1)N1CCN=C1c1cc2ccccc2c2ccccc12,GI50,HCT-15,16.6 µM
same,GI50,OVCAR-8,17.3 µM (inactive)
same,GI50,A498,15.4 µM (inactive)
same,GI50,Hs-578T,17.5 µM (inactive)
same,GI50,SF-268,16.7 µM (inactive)
same,GI50,SF-539,15.7 µM (inactive)
same,GI50,SR,22.6 µM (inactive)
same,GI50,MCF7,17.7 µM (inactive)
same,GI50,SF-295,16.6 µM (inactive)
same,GI50,MOLT-4,33.7 µM (inactive)
same,GI50,MDA-MB-435,15.7 µM (inactive)
same,GI50,Malme-3M,17.3 µM (inactive)
same,GI50,OVCAR-4,14.2 µM (inactive)
same,GI50,DU-145,17.9 µM (inactive)
same,GI50,ACHN,17.4 µM (inactive)
same,GI50,PC-3,17.1 µM (inactive)
same,GI50,UACC-257,17.5 µM (inactive)
same,GI50,RPMI-8226,19.8 µM (inactive)
same,GI50,SK-MEL-5,14.8 µM (inactive)
same,GI50,MDA-MB-231,16.2 µM (inactive)
same,GI50,HOP-62,18.8 µM (inactive)
same,GI50,HT-29,15.8 µM (inactive)
same,GI50,HL-60,21.8 µM (inactive)
same,GI50,U-251,16.3 µM (inactive)
same,GI50,UACC-62,14.5 µM (inactive)
same,GI50,MDA-N,16.4 µM (inactive)
same,GI50,K562,27.7 µM (inactive)
same,GI50,NCI-H23,17.6 µM (inactive)
same,GI50,SK-MEL-2,15.6 µM (inactive)
same,GI50,LOX IMVI,17.8 µM (inactive)
same,GI50,KM12,15.8 µM (inactive)
same,GI50,COLO 205,16 µM (inactive)
same,GI50,BT-549,19 µM (inactive)
same,GI50,T47D,19.1 µM (inactive)
same,GI50,CAKI-1,15.7 µM (inactive)
same,GI50,UO-31,16.9 µM (inactive)
same,GI50,SNB-19,16.4 µM (inactive)
same,GI50,HCT-116,14.9 µM (inactive)
same,GI50,SK-MEL-28,15.5 µM (inactive)
same,GI50,M14,38.7 µM (inactive)
same,GI50,SN12C,16.9 µM (inactive)
same,GI50,SNB-75,12.4 µM (inactive)
same,GI50,HOP-92,11.6 µM (inactive)
same,GI50,OVCAR-5,19.8 µM (inactive)
same,GI50,CCRF-CEM,27.4 µM (inactive)
same,GI50,NCI-H460,11.5 µM (inactive)
same,GI50,A549,15.9 µM (inactive)
same,GI50,EKVX,13.8 µM (inactive)
same,GI50,SW-620,17.3 µM (inactive)
same,GI50,786-0,16.7 µM (inactive)
same,GI50,SK-OV-3,16.1 µM (inactive)
same,GI50,TK-10,15.2 µM (inactive)
same,GI50,IGROV-1,14.3 µM (inactive)
same,GI50,OVCAR-3,17.6 µM (inactive)
same,GI50,NCI/ADR-RES,15.6 µM (inactive)
same,GI50,RXF 393,16.1 µM (inactive)
O=C1N=C(SC(SC2=NC(=O)C3(NN2)c2ccccc2-c2ccccc23)=C(SC2=NC(=O)C3(NN2)c2ccccc2-c2ccccc23)SC2=NC(=O)C3(NN2)c2ccccc2-c2ccccc23)NNC12c1ccccc1-c1ccccc12,GI50,NCI-H522,4.54 µM (inactive)
same,GI50,HCT-15,3.62 µM
same,GI50,OVCAR-8,7.21 µM (inactive)
same,GI50,Hs-578T,> 10 µM (inactive)
same,GI50,SF-268,> 10 µM (inactive)
same,GI50,SF-539,> 10 µM (inactive)
same,GI50,SR,3.24 µM (inactive)
same,GI50,MCF7,4.27 µM (inactive)
same,GI50,SF-295,> 10 µM (inactive)
same,GI50,MOLT-4,0.437 µM (active)
same,GI50,MDA-MB-435,> 10 µM (inactive)
same,GI50,Malme-3M,> 10 µM (inactive)
same,GI50,OVCAR-4,8.07 µM (inactive)
same,GI50,DU-145,> 10 µM (inactive)
same,GI50,ACHN,2.07 µM (inactive)
same,GI50,PC-3,4.62 µM (inactive)
same,GI50,UACC-257,5.64 µM (inactive)
same,GI50,RPMI-8226,3.59 µM (inactive)
same,GI50,SK-MEL-5,3.22 µM (inactive)
same,GI50,MDA-MB-231,4.71 µM (inactive)
same,GI50,HOP-62,> 10 µM (inactive)
same,GI50,HCC 2998,> 10 µM (inactive)
same,GI50,HT-29,6.61 µM (inactive)
same,GI50,UACC-62,6.53 µM (inactive)
same,GI50,MDA-N,5.36 µM (inactive)
same,GI50,K562,5.11 µM (inactive)
same,GI50,NCI-H226,2.76 µM (inactive)
same,GI50,NCI-H23,7.59 µM (inactive)
same,GI50,LOX IMVI,> 10 µM (inactive)
same,GI50,KM12,9.29 µM (inactive)
same,GI50,COLO 205,7.21 µM (inactive)
same,GI50,BT-549,6.53 µM (inactive)
same,GI50,T47D,0.935 µM (active)
same,GI50,CAKI-1,> 10 µM (inactive)
same,GI50,UO-31,3.18 µM (inactive)
same,GI50,SNB-19,> 10 µM (inactive)
same,GI50,HCT-116,5.55 µM (inactive)
same,GI50,SK-MEL-28,> 10 µM (inactive)
same,GI50,M14,8.71 µM (inactive)
same,GI50,SN12C,6.5 µM (inactive)
same,GI50,SNB-75,7.96 µM (inactive)
same,GI50,HOP-92,> 10 µM (inactive)
same,GI50,CCRF-CEM,5.21 µM (inactive)
same,GI50,NCI-H460,3.33 µM (inactive)
same,GI50,A549,6.65 µM (inactive)
same,GI50,EKVX,2.59 µM (inactive)
same,GI50,SW-620,> 10 µM (inactive)
same,GI50,786-0,9.66 µM (inactive)
same,GI50,SK-OV-3,> 10 µM (inactive)
same,GI50,TK-10,> 10 µM (inactive)
same,GI50,IGROV-1,8.2 µM (inactive)
same,GI50,NCI/ADR-RES,3.66 µM (inactive)
same,GI50,RXF 393,> 10 µM (inactive)
